Test results taken from ChEMBL document CHEMBL4842357, “Discovery of Novel Apigenin-Piperazine Hybrids as Potent and Selective Poly (ADP-Ribose) Polymerase-1 (PARP-1) Inhibitors for the Treatment of Cancer” (J Med Chem, 2021).
Active and inactive are the calls of the source. No cut-off for these calls is given here.

Key:
A549 [1] = assay: Cytotoxicity against human A549 cells assessed as induction of CBP cytotoxicity incubated for 48 hrs in presence of CBP by MTT assay; format: functional, cell-based; details: dose 0.1-10 µM
[2] = target: T1, Poly [ADP-ribose] polymerase 1 (Homo sapiens, UniProt P09874); assay: Binding affinity to PARP-1 in human SK-OV-3 cells assessed as thermal stabilization after 3 hrs by ITDRF-CETSA; format: cell-based; details: dose 0.1-10 µM
T1 sequence (P09874 whole entry): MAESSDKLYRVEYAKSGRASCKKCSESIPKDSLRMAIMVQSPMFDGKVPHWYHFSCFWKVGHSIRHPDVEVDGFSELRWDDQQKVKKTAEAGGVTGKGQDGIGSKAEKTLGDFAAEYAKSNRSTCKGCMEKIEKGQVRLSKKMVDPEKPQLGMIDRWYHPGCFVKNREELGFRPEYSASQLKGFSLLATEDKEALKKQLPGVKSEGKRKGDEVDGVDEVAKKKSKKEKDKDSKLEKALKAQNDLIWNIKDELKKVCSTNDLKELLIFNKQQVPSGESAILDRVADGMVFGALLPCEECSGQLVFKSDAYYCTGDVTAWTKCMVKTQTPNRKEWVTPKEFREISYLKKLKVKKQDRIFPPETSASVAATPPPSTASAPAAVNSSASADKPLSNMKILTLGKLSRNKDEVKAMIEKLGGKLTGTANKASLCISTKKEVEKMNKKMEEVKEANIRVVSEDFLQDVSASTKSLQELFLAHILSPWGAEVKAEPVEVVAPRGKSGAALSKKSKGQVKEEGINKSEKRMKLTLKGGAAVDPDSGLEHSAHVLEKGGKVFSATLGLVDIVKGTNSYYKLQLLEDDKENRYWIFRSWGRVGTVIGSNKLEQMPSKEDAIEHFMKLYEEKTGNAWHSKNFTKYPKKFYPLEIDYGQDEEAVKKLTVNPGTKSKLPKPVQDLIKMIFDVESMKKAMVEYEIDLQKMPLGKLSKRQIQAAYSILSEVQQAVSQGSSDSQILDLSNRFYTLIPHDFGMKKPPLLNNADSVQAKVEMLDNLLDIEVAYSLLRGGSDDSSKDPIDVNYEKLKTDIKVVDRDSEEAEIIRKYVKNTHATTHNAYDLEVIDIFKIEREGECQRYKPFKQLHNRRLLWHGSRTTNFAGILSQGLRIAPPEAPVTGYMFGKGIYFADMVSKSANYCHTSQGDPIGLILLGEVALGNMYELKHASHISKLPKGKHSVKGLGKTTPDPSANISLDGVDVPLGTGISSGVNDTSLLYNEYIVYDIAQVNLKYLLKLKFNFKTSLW

SK-OV-3 [3] = assay: Antitumor activity against human SK-OV-3 cells xenografted in BALB/c nude mouse assessed as decrease in PAR level at 25 to 50 mg/kg, po measured after 28 days by immunohistochemistry analysis; format: functional, organism-based; details: dose 25-50 mg/kg, time 28.0 day
[4] = target: T1, Poly [ADP-ribose] polymerase 1; assay: Inhibition of PARP-1 in human SK-OV-3 cells assessed as decrease in MCM5 protein expression level at 0.1 to 10 uM by Western blot analysis; format: cell-based; details: dose 0.1-10 µM
SK-OV-3 [5] = assay: Antitumor activity against human SK-OV-3 cells xenografted in BALB/c nude mouse assessed as increase in gamma-H2AX expression in tumor at 25 to 50 mg/kg, po measured after 28 days by immunohistochemistry analysis; format: functional, organism-based; details: dose 25-50 mg/kg, time 28.0 day
SK-OV-3 [6] = assay: Antitumor activity against human SK-OV-3 cells xenografted in BALB/c nude mouse assessed as decrease in PAR level at 25 to 50 mg/kg, po measured after 28 days by Western blot analysis; format: functional, organism-based; details: dose 25-50 mg/kg, time 28.0 day
[7] = target: T1, Poly [ADP-ribose] polymerase 1; assay: Inhibition of PARP-1 in human SK-OV-3 cells assessed as decrease in MCM7 protein expression level at 0.1 to 10 uM by Western blot analysis; format: cell-based; details: dose 0.1-10 µM
[8] = target: T1, Poly [ADP-ribose] polymerase 1; assay: Inhibition of PARP-1 in human SK-OV-3 cells assessed as decrease in MCM2 protein expression level at 0.1 to 10 uM by Western blot analysis; format: cell-based; details: dose 0.1-10 µM
[9] = target: T2, Poly [ADP-ribose] polymerase 2 (Homo sapiens, UniProt Q9UGN5); assay: Binding affinity to PARP-2 in human SK-OV-3 cells assessed as thermal stabilization after 3 hrs by ITDRF-CETSA; format: cell-based; details: dose 0.1-10 µM
T2 sequence (Q9UGN5 whole entry): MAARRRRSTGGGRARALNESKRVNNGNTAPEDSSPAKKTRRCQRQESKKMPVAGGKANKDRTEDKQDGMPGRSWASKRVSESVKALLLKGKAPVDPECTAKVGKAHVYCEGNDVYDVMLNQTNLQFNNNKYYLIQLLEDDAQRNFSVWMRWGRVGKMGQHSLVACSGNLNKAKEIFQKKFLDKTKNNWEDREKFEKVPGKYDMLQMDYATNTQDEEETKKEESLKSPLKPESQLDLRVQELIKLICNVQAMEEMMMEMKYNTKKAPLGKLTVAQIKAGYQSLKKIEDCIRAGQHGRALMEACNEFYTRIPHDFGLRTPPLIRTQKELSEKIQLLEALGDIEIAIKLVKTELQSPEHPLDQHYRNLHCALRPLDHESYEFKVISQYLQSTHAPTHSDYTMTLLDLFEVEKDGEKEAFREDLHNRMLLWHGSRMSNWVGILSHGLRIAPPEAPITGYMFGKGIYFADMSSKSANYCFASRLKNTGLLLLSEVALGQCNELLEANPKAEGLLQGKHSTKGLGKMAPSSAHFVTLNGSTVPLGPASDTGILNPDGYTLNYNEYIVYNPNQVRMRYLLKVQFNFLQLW

SK-OV-3 [10] = assay: Cytotoxicity against human SK-OV-3 cells transfected with PARP-1 siRNA assessed as reduction in cell viability at 0.1 to 10 uM after 48 hrs by MTT assay; format: functional, cell-based; details: dose 0.1-10 µM
A549 [11] = assay: Cytotoxicity against human A549 cells transfected with PARP-1 siRNA assessed as sensitization of CBP at 0.1 to 10 uM incubated for 48 hrs in presence of CBP by MTT assay; format: functional, cell-based; details: dose 0.1-10 µM
[12] = target: T1, Poly [ADP-ribose] polymerase 1; assay: Inhibition of PARP-1 in human SK-OV-3 cells assessed as induction of DNA damage by measuring increase in gamma H2AX expression at 0.1 to 10 uM by Western blot analysis; format: cell-based; details: dose 0.1-10 µM
SK-OV-3 [13] = assay: Antitumor activity against human SK-OV-3 cells xenografted in BALB/c nude mouse assessed as decrease in tumor volume at 50 mg/kg, po administered once daily measured for 28 days; format: functional, organism-based; details: time 28.0 day
[14] = target: T1, Poly [ADP-ribose] polymerase 1; assay: Binding affinity to PARP-1 in human SK-OV-3 cells assessed as increase in thermal stabilization of PARP-1 at 1 uM after 3 hrs by CETSA; format: cell-based
[15] = target: T1, Poly [ADP-ribose] polymerase 1; assay: Inhibition of PARP-1 in human SK-OV-3 cells assessed as decrease in MCM4 protein expression level at 0.1 to 10 uM by Western blot analysis; format: cell-based; details: dose 0.1-10 µM
[16] = target: T1, Poly [ADP-ribose] polymerase 1; assay: Inhibition of PARP-1 in human SK-OV-3 cells assessed as decrease in MCM6 protein expression level at 0.1 to 10 uM by Western blot analysis; format: cell-based; details: dose 0.1-10 µM
A549 [17] = assay: Cytotoxicity against human A549 cells assessed as reduction in cell viability at 0.1 to 10 uM incubated for 48 hrs by MTT assay; format: functional, cell-based; details: dose 0.1-10 µM
SK-OV-3 [18] = assay: Antitumor activity against human SK-OV-3 cells xenografted in BALB/c nude mouse assessed as increase in gamma-H2AX expression in tumor at 25 to 50 mg/kg, po measured after 28 days by Western blot analysis; format: functional, organism-based; details: dose 25-50 mg/kg, time 28.0 day
Homo sapiens = species on record: Homo sapiens; assay: Selectivity index, ratio of IC50 for inhibition of recombinant human full-length PARP-2 to IC50 for inhibition of recombinant human full-length PARP-1
SK-OV-3 [19] = assay: Cytotoxicity against human BRCA-1 deficient SK-OV-3 cells assessed as reduction in cell viability at 0.1 to 10 uM incubated for 48 hrs by MTT assay; format: functional, cell-based; details: dose 0.1-10 µM
[20] = target: T2, Poly [ADP-ribose] polymerase 2; assay: Binding affinity to PARP-2 in human SK-OV-3 cells assessed as increase in thermal stabilization of PARP-2 at 1 uM after 3 hrs by CETSA; format: cell-based
A549 [21] = assay: Antitumor activity against human A549 cells xenografted in BALB/c nude mouse assessed as tumor growth inhibition at 50 mg/kg, po administered once daily for 12 days; format: functional, organism-based; details: time 12.0 day
A549 [22] = assay: Antitumor activity against human A549 cells xenografted in BALB/c nude mouse assessed as induction of CBP mediated tumor growth inhibition at 50 mg/kg, po administered once daily for 12 days in presence of CBP; format: functional, organism-based; details: time 12.0 day
[23] = target: T1, Poly [ADP-ribose] polymerase 1; assay: Inhibition of PARP-1 in human SK-OV-3 cells assessed as induction of DNA damage by measuring increase in gamma H2AX expression by immunofluorescence assay; format: cell-based
[24] = target: T1, Poly [ADP-ribose] polymerase 1; assay: Inhibition of PARP-1 in human SK-OV-3 cells assessed as decrease in MCM3 protein expression level at 0.1 to 10 uM by Western blot analysis; format: cell-based; details: dose 0.1-10 µM
[25] = target: T1, Poly [ADP-ribose] polymerase 1; assay: Inhibition of PARP-1 in human SK-OV-3 cells assessed as decrease in H2O2-induced PAR level at 0.1 to 10 uM preincubated for 4 hrs followed by H2O2 addition by Western blot analysis; format: cell-based; details: dose 0.1-10 µM
[26] = target: T1, Poly [ADP-ribose] polymerase 1; assay: Inhibition of PARP-1 in human SK-OV-3 cells assessed as decrease in H2O2-induced PAR level preincubated for 4 hrs followed by H2O2 addition by DAPI staining based inverted fluorescence microscopic analysis; format: cell-based
[27] = target: T1, Poly [ADP-ribose] polymerase 1; assay: Inhibition of recombinant human full-length PARP-1 using biotinylated substrate
[28] = target: T2, Poly [ADP-ribose] polymerase 2; assay: Inhibition of recombinant human full-length PARP-2 using biotinylated substrate

O=c1cc(-c2ccc(O)cc2)oc2c(CN3CCN(Cc4cccs4)CC3)c(O)cc(O)c12
Activity (A549 [1]): Dose-Dependent Effect | Activity [2]: Dose-Dependent Effect | Activity (SK-OV-3 [3]): Active | inhibition [4]: Active | Activity (SK-OV-3 [5]): Active | Activity (SK-OV-3 [6]): Active | inhibition [7]: Active | inhibition [8]: Active | Activity [9]: Dose-Dependent Effect | Activity (SK-OV-3 [10]): inactive | Activity (A549 [11]): inactive | inhibition [12]: Active | Activity (SK-OV-3 [13]): Active | Activity [14]: Active | inhibition [15]: Active | inhibition [16]: Active | Activity (A549 [17]): inactive | Activity (SK-OV-3 [18]): Active | Ratio IC50 (Homo sapiens): 61.2 | Activity (SK-OV-3 [19]): Active | Activity [20]: Active | Activity (A549 [21]): inactive | Activity (A549 [22]): Active | inhibition [23]: Active | inhibition [24]: Active | inhibition [25]: Active | inhibition [26]: Active

O=c1cc(-c2ccc(O)cc2)oc2c(CN3CCN(c4ccc(Cl)cc4)CC3)c(O)cc(O)c12
IC50 [27]: 60.8 nM | IC50 [28]: 3700 nM | Ratio IC50 (Homo sapiens): 60.8

O=C(c1cccnc1)N1CCN(Cc2c(O)cc(O)c3c(=O)cc(-c4ccc(O)cc4)oc23)CC1
IC50 [27]: 26.2 nM | IC50 [28]: 1500 nM | Ratio IC50 (Homo sapiens): 57.2

O=C(OCc1ccccc1)N1CCN(Cc2c(O)cc(O)c3c(=O)cc(-c4ccc(O)cc4)oc23)CC1
IC50 [27]: 43.8 nM | IC50 [28]: 2100 nM | Ratio IC50 (Homo sapiens): 47.9

O=c1cc(-c2cccc(-c3c(O)cc(O)c4c(=O)cc(-c5ccco5)oc34)c2)oc2cc(O)cc(O)c12
IC50 [27]: 386 nM | IC50 [28]: 14700 nM | Ratio IC50 (Homo sapiens): 38

O=c1cc(-c2ccc(O)cc2)oc2c(CN3CCN(c4ccc(C(F)(F)F)cc4)CC3)c(O)cc(O)c12
IC50 [27]: 49.8 nM | IC50 [28]: 2800 nM | Ratio IC50 (Homo sapiens): 56.2

COc1ccc(CN2CCN(Cc3c(O)cc(O)c4c(=O)cc(-c5ccc(O)cc5)oc34)CC2)cc1
IC50 [27]: 35.4 nM | IC50 [28]: 2000 nM | Ratio IC50 (Homo sapiens): 56.5
